Measured values as given in patent US20240287108A1, “nSMASE2 INHIBITOR PRODRUGS WITH ENHANCED ORAL AND BRAIN EXPOSURES” (The Johns Hopkins University, priority 2021, published 2024).

Experiments:
[1] = time-dependent oral pharmacokinetics in mice; format: in vivo, mouse
Description: As described earlier, we identified P1 and P18 as the most promising candidates for time dependent PK.
All PK studies in mice were conducted according to protocols approved by the Animal Care and Use Committee at Johns Hopkins University. Male CD-1 mice between 25 and 30 g were obtained from Harlan and maintained on a 12 h light-dark cycle with ad libitum access to food and water. […] All of the formulations were freshly prepared prior to the dosing. The mice were sacrificed at specified time points (either 2 h or 0.25, 0.5, 1, 2, 4, 6, and 8 h) post drug administration. For the collection of plasma and brain tissue, animals were euthanized with CO2, and blood samples were collected in heparinized microtubes by cardiac puncture. Brains were dissected and immediately flash frozen (−80° C.) Blood samples were spun at 2000 g for 15 min, and plasma was removed and stored at −80° C. until LC-MS/MS analysis. Prior to extraction, frozen samples were thawed on ice.
Brain tissues were diluted 1:5 w/v with acetonitrile containing losartan (0.5 μm) and homogenized, followed by vortex-mixing and centrifugation at 10,000 g for 10 min at 4° C. A 50 μL aliquot of the supernatant were diluted with 50 uL of water and transferred to 250 μL polypropylene autosampler vials sealed with teflon caps. Then, 2 μL of the sample were injected into the LC/MS/MS system for analysis. Chromatographic analysis was performed using an Accela ultra-high-performance system consisting of an analytical pump and an autosampler coupled with a TSQ Vantage mass spectrometer. […] The mobile phase consisted of 0.1% formic acid in acetonitrile and 0.1% formic acid in water with gradient elution were used. […] Plasma concentrations (nmol/ml) as well as brain tissue concentrations (nmol/g) were determined and plots of mean plasma concentration versus time were constructed. Non-compartmental analysis modules in Phoenix WinNonlin version 7.0 (Certara USA, Inc., Princeton, NJ) were used to quantify exposures (AUC0-t).

[2] = in vitro stability in CES1−/− mouse brain homogenates; format: in vitro ADME; conditions: CES1−/− mouse brain homogenate, 10 μM, 37° C.
Description: All synthesized prodrugs were next screened for in vitro stability in carboxylesterase 1 knockout (CES1^−/−) mouse plasma, as well as CES1^−/− mouse brain and liver homogenates (Table 2-1). We have previously reported that CES1^−/− mouse model recapitulates human prodrug metabolism.
For the tissue homogenates, washed tissues were diluted 10-fold in 0.1 M potassium phosphate buffer and homogenized using a probe sonicator. To evaluate the stability of the intact prodrug over time, each of the crude homogenates and plasma were aliquoted to 1 mL and then spiked with a final assay concentration of 10 μM of each prodrug followed by incubation in an orbital shaker at 37° C. for 1 h (in triplicate). Sample from each incubation at predetermined time points (0 min, and 1 h) was quenched with three volumes of acetonitrile containing the internal standard (IS; losartan: 0.5 μm). Samples were vortex-mixed for 30 secs and centrifuged at 10,000×g for 10 min at 4° C. Disappearance of intact prodrugs from these samples were performed on a Dionex ultra-high-performance LC system coupled with Q Exactive Focus orbitrap mass spectrometer (Thermo Fisher Scientific Inc., Waltham MA). […] The mobile phase consisted of 0.1% formic acid in water and 0.1% formic acid in acetonitrile. Pumps were operated at a flow rate of 0.4 mL/min for 9 min using gradient elution. The mass spectrometer controlled by Xcalibur software 4.0.27.13 (Thermo Scientific) was operated with a heated electrospray ionization (HESI) ion source in positive ionization mode. Quantification of the prodrugs were performed in the full-scan mode (from m/z 50 to 1600) by comparing t=0 samples with t=60 min samples.

Q: Which “plasma exposure of the intact compound (AUC0-t)” value ([1]; oral 10 mg/kg DPTIP equivalent) does the source give for `CCC1CC(N2CCCCC2)CC(CC)N1C(=O)Oc1c(OC)cc(-c2nc(-c3ccccc3)c(-c3cccs3)[nH]2)cc1OC` (stereo not drawn) [Compound P18, 2,6-Dimethoxy-4-(5-phenyl-4-(thiophen-2-yl)-1H-imidazol-2-yl)phenyl 2′,6′-diethyl-[1,4′-bipiperidine]-1′-carboxylate] here?
A: The value was 0.969 µM·h.

Q: What about the “conversion of prodrug to DPTIP in vivo” value ([1]; oral 10 mg/kg DPTIP equivalent (P18: in the brain)) of the same compound?
A: The value was > 50%.

Q: What about the “Stability in mouse (% remaining at 1h) Mean + Std Error, Brain” value [2] of the same compound?
A: The value was 100 ± 1%.
